# Data: US12258337B2, “Bicyclic CX3CR1 receptor agonists” (Board of Regents, The University of Texas System, priority 2019, dated 2025)
# Assays:
# Format in all cases: cell-based
# hCX3CR1 [1] = molecular target: T1, hCX3CR1 (Homo sapiens, UniProt P49238); test: ChAMPion assay (CHO ChAMPion/CX3CR1 K1.6, cAMP/CNG channel, photoprotein luminescence); design: expressed in transfected cells; stably expresses a Ca2+ sensitive photo-protein; conditions: ChAMPion assay, CHO ChAMPion/CX3CR1 K1.6, Forskolin 3 μM; read-out: hCX3CR1 agonism EC50
# T1 sequence (P49238 1-355): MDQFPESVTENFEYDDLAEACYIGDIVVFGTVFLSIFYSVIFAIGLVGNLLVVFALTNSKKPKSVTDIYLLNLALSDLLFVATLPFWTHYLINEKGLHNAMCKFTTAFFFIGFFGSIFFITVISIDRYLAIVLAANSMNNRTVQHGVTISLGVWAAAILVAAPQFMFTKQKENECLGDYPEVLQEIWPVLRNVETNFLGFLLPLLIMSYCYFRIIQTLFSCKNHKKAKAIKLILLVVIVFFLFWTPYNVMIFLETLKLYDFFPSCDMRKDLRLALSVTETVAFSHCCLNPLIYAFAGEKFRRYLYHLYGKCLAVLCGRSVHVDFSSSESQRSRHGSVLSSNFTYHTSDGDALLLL
# Protocol: Buffers and reagents. PBS (D-PBS without calcium and magnesium; EuroClone); Trypsin (Trypsin 0.05%, EDTA 0.02% in PBS; EuroClone); DMSO (Sigma); Tyrode buffer Ca^2+ free: in-house solution (130 mM NaCl, 5 mM KCl, 1 mM MgCl^2, 5 mM NaHCO3, 20 mM HEPES (pH 7.4); sterile filtered and autoclaved); Tyrode buffer 10 mM Ca^2+: in-house solution (130 mM NaCl, 5 mM KCl, 10 mM CaCl2), 1 mM MgCl2, 5 mM NaHCO3, 20 mM HEPES, in water at pH 7.4, sterile filtered); Coelenterazine, native (Biosynth); stock 10 mM; Agonist: Recombinant Human Fractalkine (CX3CL1) (PeproTech); stock: 10 μM in standard Tyrode buffer/BSA 01%; stored at −20° C.
# Cell line. The final clone for the hCX3CR1 assay was CHO ChAMPion/CX3CR1 K1.6. ChAMPion technology is based on the co-expression of a Ca^2+ sensitive photoprotein and of a cyclic nucleotide-gated (CNG) channel acting as a cAMP biosensor in a CHO-K1 cell line. CNG channels are non-selective ligand gated cation channels that can be opened by the direct interaction with either cAMP or cGMP, at the intracellular C-terminus site of the channel. Channel opening allows the flux of extracellular calcium into the cell cytoplasm and its transient elevation can be recorded by means of several different calcium indicators. In the chAMPion system, the CNG channel has been modified to display sensitivity to cAMP levels in the physiological range. In addition the calcium influx through the opened channel is immediately detected by the recording of the photoprotein-emitted flash type luminescence signal.
# The chAMPion cell line system can monitor the activation of transfected Gαi-coupled receptors, which elicit changes in 3,‘5’-adenosine cyclic monophosphate (cAMP) levels, which in turn is responsible for CNG opening and consequent Ca^2+ influx.
# Assay protocol. Experiments were performed in 384 MTP format. Cells were seeded at 10,000 cells/well in 25 μL/well complete growth medium without selection antibiotics in 384-well plates. Twenty-four hours later, cells were assayed for the response to various compounds using the Ca^2+ sensitive photo-protein stably expressed in the cells as readout.
# The experiment was performed in a 384-well format according to the following procedure: • 24h after seeding, pre-incubate the cells at room temperature for 1 hour. • Then remove the culture medium. • Load cells with 20 μL/well of Ca^2+ free tyrode buffer+ceolenterazine 5 μM. • Incubate cell plates for 4 hours at RT. • 10 μl/well of 3× concentrated compounds in Ca^2+ free tyrode buffer+Forskolin 9 μM (final Forskolin concentration=3 μM) are applied to the cells (at 10 μl/s). Ten minutes later a second injection is performed: 10 μl/well of Ca^2+ free tyrode buffer+BSA 0.04% (final BSA concentration=0.01%). Twenty minutes later a third injection is performed: 20 μl/well of 10 mM Ca^2+ tyrode buffer (final Ca^2+ concentration was 3.3 mM) and luminescence is recorded for 90 seconds.
# Data from FLIPRTETRA measurements are analyzed with the Genedata Screener© software.
# hCX3CR1 [2] = molecular target: T1, hCX3CR1; test: Ga16 assay, CX3CR1 agonism, Ca2+ sensitive photo-protein readout (FLIPRTETRA); design: expressed in transfected cells; stably expresses a Ca2+ sensitive photo-protein; conditions: human CX3CR1 cell line
# Method in brief: (§1)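 Cells expressing human, mouse or rat CX3CR1 with a stably expressed Ca2+-sensitive photoprotein were loaded with 10 μM coelenterazine in tyrode buffer pH 7.4 for 3 h at room temperature. Agonist-mode luminescence kinetics were recorded for 90 s after compound injection on FLIPRTETRA. Dose-response runs were done in quadruplicate, with fractalkine as the reference agonist.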
# mCX3CR1 = molecular target: T2, mCX3CR1 (Mus musculus, UniProt Q9Z0D9); test: as above; conditions: mouse CX3CR1 cell line
# T2 construct: expressed in transfected cells; stably expresses a Ca2+ sensitive photo-protein
# T2 sequence (Q9Z0D9 1-354): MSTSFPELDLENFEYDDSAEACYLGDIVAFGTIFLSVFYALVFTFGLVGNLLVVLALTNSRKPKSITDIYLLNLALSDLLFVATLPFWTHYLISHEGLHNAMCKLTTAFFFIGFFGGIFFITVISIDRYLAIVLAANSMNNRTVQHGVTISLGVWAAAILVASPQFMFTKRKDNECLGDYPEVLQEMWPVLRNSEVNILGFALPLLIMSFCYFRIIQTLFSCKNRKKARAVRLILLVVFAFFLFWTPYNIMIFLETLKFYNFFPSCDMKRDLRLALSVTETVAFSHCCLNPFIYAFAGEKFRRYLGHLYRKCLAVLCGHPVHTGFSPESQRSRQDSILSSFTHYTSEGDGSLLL
# Method in brief: as §1
# rCX3CR1 = molecular target: T3, rCX3CR1 (Rattus norvegicus, UniProt P35411); test: as above; conditions: rat CX3CR1 cell line
# T3 construct: expressed in transfected cells; stably expresses a Ca2+ sensitive photo-protein
# T3 sequence (P35411 1-354): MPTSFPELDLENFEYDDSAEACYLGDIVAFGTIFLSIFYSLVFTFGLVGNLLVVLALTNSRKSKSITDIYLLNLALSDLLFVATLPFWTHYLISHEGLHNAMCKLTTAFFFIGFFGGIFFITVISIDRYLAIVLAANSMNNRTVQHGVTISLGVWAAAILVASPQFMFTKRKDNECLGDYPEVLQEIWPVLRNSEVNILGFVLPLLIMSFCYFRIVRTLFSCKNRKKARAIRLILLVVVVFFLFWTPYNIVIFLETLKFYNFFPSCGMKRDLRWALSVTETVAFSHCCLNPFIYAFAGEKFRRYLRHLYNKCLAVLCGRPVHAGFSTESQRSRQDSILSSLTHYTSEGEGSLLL
# Method in brief: as §1
EC50 (hCX3CR1 [1]) [µM],EC50 (hCX3CR1 [2]) [µM],EC50 (mCX3CR1) [µM],EC50 (rCX3CR1) [µM],Compound
4.3,27.3,58.1,46.7,"O=C(NCC1(CN2CCCC2)CCC1)c1cc2c(s1)CCCCCCC2 [Example 26, N-[[1-(pyrrolidin-1-ylmethyl)cyclobutyl]methyl]-5,6,7,8,9,10-hexahydro-4H-cyclonona[b]thiophene-2-carboxamide]"
1.7,8.8,20.9,19.2,"O=C(NCC1(CN2CCCC2)CCOCC1)c1cc2c(s1)CCCCCC2 [Example 20, N-[[4-(pyrrolidin-1-ylmethyl)oxan-4-yl]methyl]-4,5,6,7,8,9-hexahydrocycloocta[b]thiophene-2-carboxamide]"
1.9,14.3,30.6,27.9,"CN(C)CC1(CNC(=O)c2cc3c(s2)CCCCCC3)CCOCC1 [Example 19, N-[[4-[(dimethylamino)methyl]oxan-4-yl]methyl]-4,5,6,7,8,9-hexahydrocycloocta[b]thiophene-2-carboxamide]"
4,17.4,44.4,22.7,"CN(C)CC1(CNC(=O)c2ccc3c(c2)CCCCCC3)CCCC1 [Example 33, N-[[1-[(dimethylamino)methyl]cyclopentyl]methyl]-5,6,7,8,9,10-hexahydrobenzo[8]annulene-3-carboxamide]"
4.8,18.7,46.3,47,"CN(CCO)CC1(CNC(=O)c2cc3c(s2)CCCCCCC3)CCCC1 [Example 29, N-[[1-[[2-hydroxyethyl(methyl)amino]methyl]cyclopentyl]methyl]-5,6,7,8,9,10-hexahydro-4H-cyclonona[b]thiophene-2-carboxamide]"
1.3,11.8,18.2,15.7,"CN(CCO)CC1(CNC(=O)c2cc3c(s2)CCCCCC3)CCCC1 [Example 17, N-[[1-[[2-hydroxyethyl(methyl)amino]methyl]cyclopentyl]methyl]-4,5,6,7,8,9-hexahydrocycloocta[b]thiophene-2-carboxamide]"

# The remaining lines, values behind:
Compound,EC50 (hCX3CR1 [1]) [µM],EC50 (hCX3CR1 [2]) [µM],EC50 (mCX3CR1) [µM],EC50 (rCX3CR1) [µM]
"CN(C)CC(C)(C)CN(C)C(=O)c1cc2c(s1)CCCCCC2 [Example 7, N-[3-(dimethylamino)-2,2-dimethylpropyl]-N-methyl-4,5,6,7,8,9-hexahydrocycloocta[b]thiophene-2-carboxamide]",9.9,15.7,26.1,44.5
"O=C(NCC1(CN2CCCC2)CC1)c1cc2c(s1)CCCCCC2 [Example 4, N-[[1-(pyrrolidin-1-ylmethyl)cyclopropyl]methyl]-4,5,6,7,8,9-hexahydrocycloocta[b]thiophene-2-carboxamide]",2.8,14.6,16.2,15.4
"O=C(NCC1(CN2CCC2)CCCC1)c1cc2c(s1)CCCCCC2 [Example 14, N-[[1-(azetidin-1-ylmethyl)cyclopentyl]methyl]-4,5,6,7,8,9-hexahydrocycloocta[b]thiophene-2-carboxamide]",1.6,9.1,15.2,9.3
"CCC(CC)(CNC(=O)c1cc2c(s1)CCCCCC2)CN(C)C [Example 8, N-[2-[(dimethylamino)methyl]-2-ethylbutyl]-4,5,6,7,8,9-hexahydrocycloocta[b]thiophene-2-carboxamide]",11.2,16.2,17.1,20
"CN(C)CC1(CNC(=O)c2cc3c(s2)CCCCCC3)Cc2ccccc2C1 [Example 10, N-[[2-[(dimethylamino)methyl]-1,3-dihydroinden-2-yl]methyl]-4,5,6,7,8,9-hexahydrocycloocta[b]thiophene-2-carboxamide]",12.2,20.5,19.4,18.8
"CCN(CC)CC1(CNC(=O)c2cc3c(s2)CCCCCC3)CCCC1 [Example 12, N-[[1-(diethylaminomethyl)cyclopentyl]methyl]-4,5,6,7,8,9-hexahydrocycloocta[b]thiophene-2-carboxamide]",6.2,13.3,9.1,12.2
"CCC(CC)(CNC(=O)c1cc2c(s1)CCCCCC2)CN1CCCC1 [Example 9, N-[2-ethyl-2-(pyrrolidin-1-ylmethyl)butyl]-4,5,6,7,8,9-hexahydrocycloocta[b]thiophene-2-carboxamide]",4.1,11,11.8,14.9
"CCN(CC)CC(C)(C)CNC(=O)c1cc2c(s1)CCCCCC2 [Example 16, N-[3-(diethylamino)-2,2-dimethylpropyl]-4,5,6,7,8,9-hexahydrocycloocta[b]thiophene-2-carboxamide]",6.6,13.6,103,19.7
"O=C(NCC1(CN2CCCC2)Cc2ccccc2C1)c1cc2c(s1)CCCCCC2 [Example 11, N-[[2-(pyrrolidin-1-ylmethyl)-1,3-dihydroinden-2-yl]methyl]-4,5,6,7,8,9-hexahydrocycloocta[b]thiophene-2-carboxamide]",6.3,20.5,15.4,19.6
"CC(CNC(=O)c1cc2c(s1)CCCCCC2)CN(C)C (stereo not shown) [Example 3, N-[3-(dimethylamino)-2-methylpropyl]-4,5,6,7,8,9-hexahydrocycloocta[b]thiophene-2-carboxamide]",30,21,75.1,77.2
